Assay results from US20220127267A1, “THIENO[3,2-B] PYRROLE[3,2-D]PYRIDAZINONE DERIVATIVES AND THEIR USE AS PKM2 DERIVATIVES FOR THE TREATMENT OF CANCER, OBESITY AND DIABETES RELATED DISORDERS” (Agios Pharmaceuticals, Inc., priority 2019, published 2022).

What was measured:
[1] = target: PKR K410E (Homo sapiens, UniProt P30613, K410E); assay: PKR Mutant Assay (K410E), LDH-coupled, absorbance 340 nm; assay type: biochemical; details: mutant PKR K410E enzyme activation
Procedure: (§1) PKR (WT or mutant) enzyme stock solution was diluted to prepare a 1.25× Reaction Mix (without ADP). 1 μL of test compound was first added to the wells followed by 40 μL of 1.25× Reaction Mix (without ADP) and incubated at room temperature (25° C.) for 60 min. The reaction was initiated with 10 μL ADP, bringing the final Reaction Mix to 1x, and the reaction progress was measured as changes in absorbance at 340 nm wavelength at room temperature.
(§2) Test compound preparation: Test compounds were prepared at 50× final concentration in DMSO. 1 to 3 dilutions were made for 11 points (for example 50 μL of 5000 μM compound was added to 100 μL 100% DMSO to yield a 1667 μM, 50 μL of this added to 100 μL DMSO to yield 556 μM, and so forth). The compounds were added to the assay as a 1 to 50 dilution (1 μL in 50 μL) to yield a top concentration of 100 μM, decreasing 3-fold for 11 points.
(§3) Reaction Mix: PKR (1.25-1000 ng/well, 0.025-20 μg/ml depending on the PKR mutant), ADP (0.05-2.3 mM depending on the PKR mutant), PEP (0.031-2 mM depending on the PKR mutant), NADH (180 μM), LDH (0.005 U/μL, Sigma #L3888), 1 mM DTT, 0.03% BSA in 1× Reaction Buffer
(§4) Reaction Buffer: 100 mM KCl, 50 mM Tris pH 7.5, 5 mM MgCl2.

[2] = target: PKM2 WT (Homo sapiens, UniProt P14618); assay: PKM2 Assay, LDH-coupled, absorbance 340 nm; assay type: biochemical; details: wild type PKM2 enzyme activation
Sequence of PKM2 WT (P14618 whole entry): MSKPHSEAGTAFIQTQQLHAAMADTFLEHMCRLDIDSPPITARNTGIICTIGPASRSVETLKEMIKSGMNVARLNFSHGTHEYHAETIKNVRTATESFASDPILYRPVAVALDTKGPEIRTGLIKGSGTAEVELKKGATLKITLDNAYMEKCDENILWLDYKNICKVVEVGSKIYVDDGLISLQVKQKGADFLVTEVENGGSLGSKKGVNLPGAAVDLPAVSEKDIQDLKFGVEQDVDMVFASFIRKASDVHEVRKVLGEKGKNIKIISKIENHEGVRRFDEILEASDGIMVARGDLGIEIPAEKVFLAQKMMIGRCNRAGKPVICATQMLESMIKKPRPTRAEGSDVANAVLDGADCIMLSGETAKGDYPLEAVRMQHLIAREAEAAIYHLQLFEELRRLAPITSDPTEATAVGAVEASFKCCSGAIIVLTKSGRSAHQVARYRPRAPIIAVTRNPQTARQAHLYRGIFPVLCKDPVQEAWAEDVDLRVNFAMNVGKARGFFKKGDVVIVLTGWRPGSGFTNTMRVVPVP
Procedure: as §1, with “PKM2” for “PKR (WT or mutant)”, “ADP (0.4 mM final concentration),” for “ADP,”
as §2
Reaction Mix: PKM2 (5 ng/well, 0.1 μg/ml), ADP (0.4 mM), PEP (0.11 mM), NADH (180 μM), LDH (0.005 U/μL, Sigma #L3888), 1 mM DTT, 0.03% BSA in 1×
as §4

[3] = target: PK R510Q (Homo sapiens, UniProt P30613, R510Q); assay: PKR Mutant Assay (R510Q), LDH-coupled, absorbance 340 nm; assay type: biochemical; details: mutant PKR R510Q enzyme activation
Sequence of PK R510Q (P30613 whole entry R510Q): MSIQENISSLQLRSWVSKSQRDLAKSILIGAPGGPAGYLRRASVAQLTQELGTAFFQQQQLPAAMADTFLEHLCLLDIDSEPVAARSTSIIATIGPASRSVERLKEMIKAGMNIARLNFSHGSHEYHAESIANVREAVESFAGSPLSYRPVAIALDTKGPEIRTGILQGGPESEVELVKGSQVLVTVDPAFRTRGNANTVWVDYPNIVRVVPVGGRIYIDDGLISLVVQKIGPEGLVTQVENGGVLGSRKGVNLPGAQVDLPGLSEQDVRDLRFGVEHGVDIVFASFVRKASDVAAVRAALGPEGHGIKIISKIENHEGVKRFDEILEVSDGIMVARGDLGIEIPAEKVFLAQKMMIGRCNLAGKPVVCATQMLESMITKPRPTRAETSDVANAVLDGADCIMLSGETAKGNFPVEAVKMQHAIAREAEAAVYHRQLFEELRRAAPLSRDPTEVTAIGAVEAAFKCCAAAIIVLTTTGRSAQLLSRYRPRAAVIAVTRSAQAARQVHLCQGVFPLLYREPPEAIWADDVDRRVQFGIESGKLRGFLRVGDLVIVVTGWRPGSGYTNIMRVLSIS
Procedure: as §1, §2, §3, §4

[4] = system: RBCs; assay: Cell Based ATP Assay in purified red blood cells (Cell-Titer-Glo); design: species or system human; details: wild type PKR, ATP levels in RBCs, overnight at 37° C.
Procedure: Fresh blood drawn from healthy volunteers into K2EDTA tubes was collected. Whole blood was pelleted by spinning at 500 g for 10 minutes. The transfusion bag port was cut off Purecell leukocyte reduction neofilter (Fisher NC0267633) one (1) inch above filter. A 10 ml syringe barrel was attached to the remaining cut tubing attached to the neofilter. The plasma layer was removed from the pellet of the whole blood and the pellet was resuspended in 2× volume of phosphate buffered saline (PBS). 9 ml re-suspended blood cell pellet was transferred to a 10 ml syringe that was attached to the neofilter. The whole blood was allowed to gravity flow through filter until all fluid ran through upper tubing into a filter disc. The plunger was added to the syringe. The filter was inverted and air was plunged through the syringe filter system. A new 5 ml syringe was used to remove filtered RBCs from the bag by the syringe port. Purified RBCs were transferred to a 5 ml snap cap tube that had been incubated on ice. The 5 ml snap cap tube was spun at 500 g for 10 minutes at 15 C. Supernatant was aspirated and resuspended in AGAM (1×PBS, 1% glucose, 170 mg/L adenine, 5.25 g/L mannitol) at a density of 4×10^9 cells/mL.
For cell based ATP assays, the compound as described herein was prepared in 100% DMSO as a 10 mM stock. Serial dilutions (1:4) were performed in 96-well V-bottom storage plate and then added 1:100 to 96-well V-bottom plates containing AGAM. 10 μL/well of compound diluted in AGAM was added to black clear bottom assay plates. RBCs were diluted in AGAM media to a density of 1×10^7 cells/mL before added 90 μL/well to black clear bottom assay plates (final compound concentration at 0.1% DMSO concentration). Assay plates were sealed using aluminum foil seals and incubated overnight at 37° C. in a humidified chamber. ATP levels were read out using Cell-Titer-Glo (Promega).

[5] = target: PKR WT (Homo sapiens, UniProt P30613); assay: PKR enzyme assay (WT), LDH-coupled, absorbance 340 nm; assay type: biochemical; details: wild type PKR enzyme activation
Sequence of PKR WT (P30613 whole entry): as the sequence (P30613 whole entry R510Q) above, with Q510R counted along it
Procedure: as §1, §2, §3, §4

[6] = target: PKM2 (Mus musculus, UniProt P52480); details: in vivo; cited from earlier work
Sequence of PKM2 (P52480 whole entry): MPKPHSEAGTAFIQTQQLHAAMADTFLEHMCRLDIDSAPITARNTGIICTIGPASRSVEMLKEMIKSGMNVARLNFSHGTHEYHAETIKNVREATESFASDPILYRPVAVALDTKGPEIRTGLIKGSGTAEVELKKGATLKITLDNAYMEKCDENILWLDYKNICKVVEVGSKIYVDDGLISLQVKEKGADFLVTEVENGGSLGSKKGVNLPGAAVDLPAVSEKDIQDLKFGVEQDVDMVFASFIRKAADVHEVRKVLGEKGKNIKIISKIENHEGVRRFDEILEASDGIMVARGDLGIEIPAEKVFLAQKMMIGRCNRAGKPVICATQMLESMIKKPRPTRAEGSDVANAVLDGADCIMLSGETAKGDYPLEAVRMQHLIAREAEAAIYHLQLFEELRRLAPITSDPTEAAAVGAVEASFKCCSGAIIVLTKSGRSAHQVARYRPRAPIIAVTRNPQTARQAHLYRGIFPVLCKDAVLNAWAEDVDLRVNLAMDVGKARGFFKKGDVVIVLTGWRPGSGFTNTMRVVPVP

Sequence of PKR K410E (P30613 whole entry K410E): as the sequence (P30613 whole entry R510Q) above, with K410E, Q510R counted along it

SMILES | AC50 [1] [nM] | AC50 [2] [nM] | AC50 [3] [nM] | AC50 [5] [nM] | PKR K410E AC50 [1] | PK R510Q AC50 [3] | PKR WT AC50 [5] | Cell based ATP assay AC50 [4] | AC50 ([4]; Homo sapiens, Erythrocyte) [nM] | LPS and IL-1β production [6] | production of IL-10 [6]
COc1cccc(Cn2ncn3c(c(C)c4nc(C)sc43)c2=O)c1 [Cpd 25] | > 800 | > 800 | > 800 | > 800 |  |  |  | No Fit |  |  | 
Cc1nc2c3cnn(Cc4ccccc4)c(=O)c3n(C)c2s1 [Cpd 26] | > 800 | > 800 | > 800 | > 800 |  |  |  | No Fit |  |  | 
Cn1ccc(Cn2ncc3c4cc(Cc5cscn5)ccc4n(C)c3c2=O)n1 [Cpd 31] | > 800 | > 800 | > 800 | > 800 |  |  |  |  | > 1000 |  | 
Cn1cc(Cc2ccc3c4cnn(Cc5cccc(C(N)=O)c5)c(=O)c4n(C)c3c2)cn1 [Cpd 62] | > 800 | 301 to 800 | > 800 | > 800 |  |  |  | No Fit |  |  | 
COc1cccc(Cn2ncc3c4ncccc4n(C)c3c2=O)c1 [Cpd 65] | > 800 | > 800 | > 800 | > 800 |  |  |  |  |  |  | 
COc1cccc(Cn2ncc3c4cccnc4n(C)c3c2=O)c1 [Cpd 66] | > 800 | 301 to 800 | 301 to 800 | > 800 |  |  |  |  |  |  | 
Cn1c2cc([S+](C)[O-])sc2c2cnn(Cc3cccc(N)c3)c(=O)c21 (stereo not drawn) [TEPP-46] |  |  |  |  |  |  |  |  |  | inhibited | boosting

Second part, led by results:

AC50 [1] [nM] | AC50 [2] [nM] | AC50 [3] [nM] | AC50 [5] [nM] | PKR K410E AC50 [1] | PK R510Q AC50 [3] | PKR WT AC50 [5] | SMILES | Cell based ATP assay AC50 [4] | AC50 ([4]; Homo sapiens, Erythrocyte) [nM] | LPS and IL-1β production [6] | production of IL-10 [6]
 | 301 to 800 |  |  | No Fit | No Fit | No Fit | Cn1cc(Cc2ccc3c(c2)c2cnn(Cc4cccc(C(N)=O)c4)c(=O)c2n3C)cn1 [Cpd 35] | No Fit |  |  | 
> 800 | > 800 | > 800 | > 800 |  |  |  | Cn1c2ccc([S+](C)[O-])cc2c2cnn(Cc3cccc(C(N)=O)c3)c(=O)c21 (stereo not drawn) [Cpd 51] | No Fit |  |  | 
> 800 | 301 to 800 | > 800 | > 800 |  |  |  | Cn1c2ccc(S(C)(=O)=O)cc2c2cnn(Cc3cccc(C(N)=O)c3)c(=O)c21 [Cpd 52] | No Fit |  |  | 
